Test results taken from ChEMBL document CHEMBL1201862, “PubChem BioAssay data set” (2004).
The source made the active and inactive calls.

What was measured:
Cytochrome P450 2C9 = Cytochrome P450 2C9 (Homo sapiens, UniProt P11712)
Cytochrome P450 2D6 = Cytochrome P450 2D6 (Homo sapiens, UniProt P10635);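 note: CYP2D6 member of a cytochrome P450 panel assay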
INS1 = assay: INS-1E survival protection against cytokine death – cell-based, luminescence, retest, dose response (AID 449756); assay type: functional; conditions: Rattus norvegicus;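 note: cell death triggered by IL-1 beta plus TNF-alpha plus IFN-gamma mixture; protective hits raise ATP signal compared with cytokine alone wells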
BJ [1] = assay: cells; assay type: functional, cell-based; conditions: Homo sapiens
cells [2] = assay type: functional, cell-based
BJ [3] = assay: BJ-TERT fibroblast viability loss – cell-based, RAS-independent, luminescence, dose response (AID 1933); assay type: functional; conditions: Homo sapiens
cells [4] = assay type: functional, cell-based; remark: listed apart in the source
BJ [5] = assay: BJ-TERT-LT-ST fibroblast viability loss – cell-based, RAS-independent, luminescence, dose response (AID 1935); assay type: functional; conditions: Homo sapiens;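 note: BJ fibroblasts immortalized with TERT plus LT and ST oncogenes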
[6] = DRD fibroblast viability loss – cell-based, non-viral oncogenic, luminescence, dose response (AID 1934); assay type: functional; conditions: Homo sapiens
Paired box protein Pax-8 = Paired box protein Pax-8 (Homo sapiens, UniProt Q06710); assay: PAX8 transcriptional activity inhibition in RMG-I – RMG-I cells, luciferase, cherry-pick, dose response (AID 687027); assay type: functional, cell-based;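 note: luciferase reporter driven by Pax8 target thyroperoxidase promoter measured by SteadyGlo luminescence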
Chain of Paired box protein Pax-8 (Q06710 whole entry, the tested form may be a part): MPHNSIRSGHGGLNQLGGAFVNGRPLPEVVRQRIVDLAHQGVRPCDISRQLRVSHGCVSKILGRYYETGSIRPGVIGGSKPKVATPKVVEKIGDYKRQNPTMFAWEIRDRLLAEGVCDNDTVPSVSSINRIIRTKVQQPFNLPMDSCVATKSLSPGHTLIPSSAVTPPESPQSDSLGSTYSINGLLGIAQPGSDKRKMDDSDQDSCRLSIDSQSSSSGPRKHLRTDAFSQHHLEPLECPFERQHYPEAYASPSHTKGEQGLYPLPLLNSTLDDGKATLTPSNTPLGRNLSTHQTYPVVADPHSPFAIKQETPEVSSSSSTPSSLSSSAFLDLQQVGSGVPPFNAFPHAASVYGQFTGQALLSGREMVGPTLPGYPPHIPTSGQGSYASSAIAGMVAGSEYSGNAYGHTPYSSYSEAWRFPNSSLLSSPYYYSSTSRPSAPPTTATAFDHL

[7] = biological target: T1, Polyadenylate-binding protein 1 (Homo sapiens, UniProt P11940); assay: MLLE domain peptide-binding blockers, IC50 – biochemical, fluorescence polarization, FITC-PAM2 peptide, dose response (AID 602259); assay type: functional; conditions: read-out: IC50_Mean
T1 sequence (P11940 whole entry, the tested form may be a part): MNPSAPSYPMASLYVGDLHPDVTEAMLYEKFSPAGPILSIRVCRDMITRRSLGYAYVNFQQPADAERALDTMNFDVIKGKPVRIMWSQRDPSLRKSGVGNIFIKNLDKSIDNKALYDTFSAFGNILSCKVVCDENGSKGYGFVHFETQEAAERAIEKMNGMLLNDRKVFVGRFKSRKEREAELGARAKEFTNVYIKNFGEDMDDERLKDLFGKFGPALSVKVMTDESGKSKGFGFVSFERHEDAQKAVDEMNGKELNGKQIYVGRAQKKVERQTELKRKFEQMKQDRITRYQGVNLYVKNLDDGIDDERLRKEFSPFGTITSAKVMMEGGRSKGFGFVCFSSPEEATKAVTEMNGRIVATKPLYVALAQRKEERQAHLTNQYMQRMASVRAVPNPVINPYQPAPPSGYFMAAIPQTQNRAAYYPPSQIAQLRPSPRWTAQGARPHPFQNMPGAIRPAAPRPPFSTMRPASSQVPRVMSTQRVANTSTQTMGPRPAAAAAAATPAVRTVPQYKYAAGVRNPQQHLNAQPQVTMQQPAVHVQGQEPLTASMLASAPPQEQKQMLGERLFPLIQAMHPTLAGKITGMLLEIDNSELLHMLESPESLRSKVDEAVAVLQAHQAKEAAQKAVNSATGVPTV

[8] = biological target: T1, Polyadenylate-binding protein 1; assay: MLLE binding blockers, Cy5 peptide tracer – biochemical, fluorescence polarization, Cy5-PAM2 peptide, secondary, miRNA deadenylation inhibitor project, dose response (AID 602260); assay type: functional; conditions: read-out: IC50_Mean
Cytochrome P450 2C19 = Cytochrome P450 2C19 (Homo sapiens, UniProt P33261); assay: Cytochrome panel assay with activity outcomes. Panel member name: p450-cyp2c19 Compounds with AC50 equal or less than 10 uM are considered active; assay type: functional; conditions: read-out: AC50
Chain of Cytochrome P450 2C19 (P33261 whole entry): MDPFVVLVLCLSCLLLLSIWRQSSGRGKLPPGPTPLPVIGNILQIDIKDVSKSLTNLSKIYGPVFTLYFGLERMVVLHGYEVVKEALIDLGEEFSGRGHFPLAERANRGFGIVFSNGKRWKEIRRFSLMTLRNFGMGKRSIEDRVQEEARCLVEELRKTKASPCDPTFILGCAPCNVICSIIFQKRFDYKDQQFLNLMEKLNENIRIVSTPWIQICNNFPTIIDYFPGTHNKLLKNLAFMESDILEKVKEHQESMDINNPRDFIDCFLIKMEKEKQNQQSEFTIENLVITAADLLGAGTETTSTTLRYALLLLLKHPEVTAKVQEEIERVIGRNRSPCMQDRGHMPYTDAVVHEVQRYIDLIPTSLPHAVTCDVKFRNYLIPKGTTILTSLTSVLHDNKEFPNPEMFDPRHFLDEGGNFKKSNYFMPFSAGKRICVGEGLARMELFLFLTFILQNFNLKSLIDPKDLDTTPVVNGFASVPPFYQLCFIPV

Cytochrome P450 1A2 = biological target: T2, Cytochrome P450 1A2 (Homo sapiens, UniProt P05177);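 note: PubChem cytochrome P450 panel assay, CYP1A2 panel member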
T2 sequence (P05177 whole entry): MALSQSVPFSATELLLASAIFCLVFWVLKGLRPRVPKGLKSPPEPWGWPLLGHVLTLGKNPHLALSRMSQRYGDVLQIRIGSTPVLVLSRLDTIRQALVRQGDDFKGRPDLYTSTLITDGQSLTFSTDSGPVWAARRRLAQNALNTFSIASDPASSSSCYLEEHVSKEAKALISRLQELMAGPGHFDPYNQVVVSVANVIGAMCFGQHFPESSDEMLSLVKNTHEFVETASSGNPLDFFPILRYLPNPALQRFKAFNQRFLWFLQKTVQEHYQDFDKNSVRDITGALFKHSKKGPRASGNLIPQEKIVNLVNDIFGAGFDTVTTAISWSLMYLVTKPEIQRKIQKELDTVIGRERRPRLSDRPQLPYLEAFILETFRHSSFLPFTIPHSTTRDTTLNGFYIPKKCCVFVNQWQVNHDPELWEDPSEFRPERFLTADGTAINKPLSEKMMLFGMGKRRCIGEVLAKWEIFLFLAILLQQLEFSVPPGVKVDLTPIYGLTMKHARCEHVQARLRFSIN

[9] = biological target: T3, Corticotropin-releasing factor receptor 2/Corticotropin-releasing factor-binding protein (Homo sapiens, UniProt P24387+Q13324); assay: activators of CRF receptor 2 with binding protein – uHTS hits, confirmation (AID 602473); assay type: functional; conditions: read-out: EC50_Mean
T3 sequence (Q13324 whole entry): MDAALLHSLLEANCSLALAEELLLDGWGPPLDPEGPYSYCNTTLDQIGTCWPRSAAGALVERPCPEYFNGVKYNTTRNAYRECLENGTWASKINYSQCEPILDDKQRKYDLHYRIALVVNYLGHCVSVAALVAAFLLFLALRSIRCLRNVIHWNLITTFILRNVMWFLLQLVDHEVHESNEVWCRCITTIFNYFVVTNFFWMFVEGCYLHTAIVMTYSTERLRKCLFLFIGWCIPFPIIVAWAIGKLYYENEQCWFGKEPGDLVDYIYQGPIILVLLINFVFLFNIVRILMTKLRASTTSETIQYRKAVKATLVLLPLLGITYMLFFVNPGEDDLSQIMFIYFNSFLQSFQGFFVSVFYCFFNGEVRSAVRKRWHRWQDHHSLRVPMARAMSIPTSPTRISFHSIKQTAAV
T3 sequence (P24387 whole entry): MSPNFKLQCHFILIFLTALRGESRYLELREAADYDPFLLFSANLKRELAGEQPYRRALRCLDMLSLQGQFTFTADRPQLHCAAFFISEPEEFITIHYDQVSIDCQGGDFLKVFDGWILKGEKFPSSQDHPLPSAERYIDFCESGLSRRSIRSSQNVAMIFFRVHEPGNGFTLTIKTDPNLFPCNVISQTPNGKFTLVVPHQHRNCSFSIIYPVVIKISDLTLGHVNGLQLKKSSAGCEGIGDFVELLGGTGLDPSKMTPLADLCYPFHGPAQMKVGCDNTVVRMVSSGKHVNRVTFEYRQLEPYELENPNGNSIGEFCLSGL

Chain of Cytochrome P450 2D6 (P10635 whole entry): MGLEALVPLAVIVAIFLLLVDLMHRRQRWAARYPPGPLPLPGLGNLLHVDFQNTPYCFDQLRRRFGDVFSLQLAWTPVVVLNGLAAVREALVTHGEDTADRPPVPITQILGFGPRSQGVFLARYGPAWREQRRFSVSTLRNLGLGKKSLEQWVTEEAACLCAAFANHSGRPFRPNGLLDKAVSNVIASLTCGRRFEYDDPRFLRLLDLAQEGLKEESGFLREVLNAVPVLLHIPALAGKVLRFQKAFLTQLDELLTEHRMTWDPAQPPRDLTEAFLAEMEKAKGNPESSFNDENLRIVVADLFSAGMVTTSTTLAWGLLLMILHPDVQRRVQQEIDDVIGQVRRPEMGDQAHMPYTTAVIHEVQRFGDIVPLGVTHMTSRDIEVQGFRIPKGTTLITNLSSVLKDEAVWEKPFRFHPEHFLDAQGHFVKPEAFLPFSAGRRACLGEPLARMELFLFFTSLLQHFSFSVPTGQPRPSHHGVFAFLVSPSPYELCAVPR
Chain of Cytochrome P450 2C9 (P11712 whole entry): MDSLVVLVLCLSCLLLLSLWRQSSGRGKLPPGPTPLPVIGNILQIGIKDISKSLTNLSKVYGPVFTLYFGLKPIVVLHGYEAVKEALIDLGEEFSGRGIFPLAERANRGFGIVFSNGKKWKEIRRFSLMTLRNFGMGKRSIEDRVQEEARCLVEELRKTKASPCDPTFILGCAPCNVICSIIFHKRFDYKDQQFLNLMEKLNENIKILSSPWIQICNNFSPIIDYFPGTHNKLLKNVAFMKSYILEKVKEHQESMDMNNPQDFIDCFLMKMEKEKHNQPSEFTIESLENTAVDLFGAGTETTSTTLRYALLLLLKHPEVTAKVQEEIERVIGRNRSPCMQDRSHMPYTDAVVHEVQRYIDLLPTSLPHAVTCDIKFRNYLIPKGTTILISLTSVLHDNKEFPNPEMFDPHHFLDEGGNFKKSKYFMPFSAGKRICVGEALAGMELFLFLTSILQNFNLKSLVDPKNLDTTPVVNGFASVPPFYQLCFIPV

In the case of `CN(C)c1ncc2nc(-c3cccc(C#N)c3)c(=O)n(CCC#N)c2n1`, the AC50 (Cytochrome P450 2C9) is reported as “inconclusive” and the AC50 (Cytochrome P450 2D6) is reported as 39.8 µM (inconclusive).

For `Cn1nccc1C(=O)N/N=C/c1c(O)ccc2ccccc12`, the AC50 (INS1) was 0.856 µM (active), the EC50 (BJ [1]) was 7.69 µM (active) and the EC50 (cells [2]) was 5.93 µM (active). The EC50 (BJ [3]) was 1.61 µM (active), the EC50 (cells [4]) was 38.7 µM (active) and the EC50 (BJ [5]) was 4.66 µM (active). For the same compound, the EC50 [6] was 1.59 µM (active).

In the case of `C[C@@H]1CN([C@@H](C)CO)S(=O)(=O)c2ccc(C#Cc3ccc(F)cc3)cc2O[C@H]1CN(C)C(=O)NC1CCCCC1`, the AC50 (Paired box protein Pax-8) is reported as 7.93 µM (active).

With `O=C(NC(=S)Nc1ccc2oc(=O)ccc2c1)c1ccco1` the IC50 [7] was > 66 µM (inactive) and the IC50 [8] was > 66 µM (inactive).

In the case of `COC(=O)c1cc(NS(=O)(=O)c2ccc(N3CCCCC3)c([N+](=O)[O-])c2)cc(C(=O)OC)c1`, the AC50 (Cytochrome P450 2D6) is reported as 10 µM (inconclusive), the AC50 (Cytochrome P450 2C19) is reported as 2.51 µM (inconclusive) and the AC50 (Cytochrome P450 1A2) is reported as 15.8 µM (inconclusive).

In the case of `CC[C@@H]1CN2CCc3cc(OC)c(OC)cc3[C@H]2C[C@@H]1C[C@@H]1NCCc2cc(O)c(OC)cc21`, the AC50 (Cytochrome P450 2D6) is reported as 10 µM (inconclusive).

In the case of `O=C(Cc1ccc(Cl)cc1)NC(=S)Nc1ccccc1O`, the EC50 [9] is reported as 5.99 µM (active), the IC50 [7] is reported as > 66 µM (inactive) and the IC50 [8] is reported as > 66 µM (inactive).

For `CCc1cc(C(=O)c2ccccc2OC)c(N)s1`, the IC50 [7] was > 66 µM (inactive) and the IC50 [8] was > 66 µM (inactive).

For `CS(=O)(=O)N1CCC2(CCN(c3ccncc3)CC2)CC1`, the AC50 (Cytochrome P450 2D6) was 25.1 µM (inconclusive).

With `O=C1c2ccccc2-c2cc3ccccc3cc21` the IC50 [7] was > 66 µM (inactive) and the IC50 [8] was > 66 µM (inactive).

With `CCOc1ccccc1N=C(S)NNS(=O)(=O)c1c(C)cc(C)cc1C` the IC50 [7] was > 66 µM (inactive) and the IC50 [8] was > 66 µM (inactive).

In the case of `CCc1ccc(OCCCC(=O)Nc2ccc(N3CCCCC3)cc2)cc1`, the AC50 (Cytochrome P450 2D6) is reported as 1.26 µM (inconclusive) and the AC50 (Cytochrome P450 2C19) is reported as 10 µM (inconclusive).

In the case of `O=C(CN1C(=O)S/C(=C\c2ccccc2)C1=O)NCCCn1ccnc1`, the IC50 [7] is reported as > 66 µM (inactive) and the IC50 [8] is reported as > 66 µM (inactive).
